According to patent US6462060B2, “Heterocyclic-hydroxyimino-fluorene nuclei compounds and pharmaceutical compositions for inhibiting protein kinases, and methods for their use” (Agouron Pharmaceuticals, Inc., priority 2000, dated 2002):

Tests used:
CHK-1 KH289 = molecular target: T1, CHK-1 KH289 (Homo sapiens, UniProt O14757); test: CHK-1 assay (coupled spectrophotometric, Syntide-2); assay type: biochemical; conditions: for Ki: 10 nM CHK-1 KH289, 0.15 mM ATP
T1 construct: CHK-1 KH289 contains residues 1-289 of human CHK-1; 6xHis (C); made in house; host or cells: baculovirus/insect cell system
T1 sequence (O14757 1-289): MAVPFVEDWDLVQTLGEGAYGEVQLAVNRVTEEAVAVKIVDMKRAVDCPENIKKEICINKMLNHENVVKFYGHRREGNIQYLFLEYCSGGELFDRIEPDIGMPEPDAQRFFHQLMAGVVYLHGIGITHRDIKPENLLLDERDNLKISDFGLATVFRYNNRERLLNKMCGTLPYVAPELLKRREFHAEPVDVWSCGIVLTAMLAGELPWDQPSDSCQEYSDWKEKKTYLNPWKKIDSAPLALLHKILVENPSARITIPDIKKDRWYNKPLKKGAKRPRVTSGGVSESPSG
Source text: CHK-1 KH289 contains residues 1-289 of human CHK-1 including the kinase domain. It contains 6 histidine residues (6×His-tag) at the C-terminus of residue 289. The protein was expressed in a baculovirus/insect cell system and purified by conventional chromatographic techniques.
(§1) The production of ADP from ATP that accompanies phosphoryl transfer to the synthetic substrate peptide Syntide-2 ([…]) was coupled to oxidation of NADH using phosphoenolpyruvate (PEP) through the actions of pyruvate kinase (PK) and lactic dehydrogenase (LDH). The oxidation of NADH was monitored by following the decrease of absorbance at 340 nm (ε340=6.22 cm^−1 mM^−1) using a HP8452 spectrophotometer. Typical reaction solutions contained: 4 mM PEP; 0.15 mM NADH; 28 units of LDH/ml; 16 units of PK/ml; 3 mM DTT; 0.125 mM Syntide2Σ; 0.15 mM ATP; 25 mM MgCl2 in 50 mM TRIS, pH 7.5; and 400 mM NaCl. Assays were initiated with 10 nM of CHK-1 KH289. Ki values were determined by measuring initial enzyme activity in the presence of varying concentrations of test compounds. The data were analyzed using Enzyme Kinetic and Kaleidagraph software.

[1] = molecular target: T2, phosphorylated VEGF-R2Δ50 (FLVK-P) (Homo sapiens, UniProt P35968, DEL940-989/E990V); test: VEGF-R2 coupled spectrophotometric (FLVK-P) assay; assay type: biochemical; conditions: phosphorylated VEGF-R2Δ50, 1 mM ATP
T2 construct: VEGF-R2Δ50 contains residues 806-939 and 990-1171; made in house; host or cells: baculovirus/insect cell system
T2 sequence (P35968 with tags, fused parts or gaps DEL940-989/E990V limits assumed): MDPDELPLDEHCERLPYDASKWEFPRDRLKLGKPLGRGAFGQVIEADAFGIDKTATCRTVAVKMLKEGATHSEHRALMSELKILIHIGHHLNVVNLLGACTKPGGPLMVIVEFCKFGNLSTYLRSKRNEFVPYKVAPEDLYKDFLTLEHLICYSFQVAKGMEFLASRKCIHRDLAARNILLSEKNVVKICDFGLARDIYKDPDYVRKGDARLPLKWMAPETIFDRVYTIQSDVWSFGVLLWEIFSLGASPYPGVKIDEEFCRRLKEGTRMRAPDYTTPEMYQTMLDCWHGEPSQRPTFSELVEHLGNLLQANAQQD
Source text: VEGF-R2 Construct for Assay: A construct (VEGF-R2Δ50) of the cytosolic domain of human vascular endothelial growth factor receptor 2 (VEGF-R2) lacking the 50 central residues of the 68 residues of the kinase insert domain was expressed in a baculovirus/insect cell system. Of the 1356 residues of full-length VEGF-R2, VEGF-R2Δ50 contains residues 806-939 and 990-1171, and also one point mutation (E990V) within the kinase insert domain relative to wild-type VEGF-R2. See McTigue et al., Structure, 7, 319-330 (1999); U.S. patent application Ser. No. 09/390,326, filed Sep. 7, 1999. Autophosphorylation of the purified construct was performed by incubation of the enzyme at a concentration of 4 μM in the presence of 3 mM ATP and 40 mM MgCl2 in 100 mM Hepes, pH 7.5, containing 5% glycerol and 5 mM DTT, at 4° C. for 2 h. […] See Parast et al., Biochemistry, 37, 16788-16801 (1998).
Coupled Spectrophotometric (FLVK-P) Assay
The production of ADP from ATP that accompanies phosphoryl transfer was coupled to oxidation of NADH using phosphoenolpyruvate (PEP) and a system having pyruvate kinase (PK) and lactic dehydrogenase (LDH). The oxidation of NADH was monitored by following the decrease of absorbance at 340 nm (e340=6.22 cm^−1 mM^−1) using a Beckman DU 650 spectrophotometer. Assay conditions for phosphorylated VEGF-R2Δ50 (indicated as FLVK-P in the tables below) were the following: 1 mM PEP; 250 μM NADH; 50 units of LDH/mL; 20 units of PK/mL; 5 mM DTT; […]; 1 mM ATP; and 25 mM MgCl2 in 200 mM Hepes, pH 7.5. Assay conditions for unphosphorylated VEGF-R2Δ50 (indicated as FLVK in the tables) were the following: 1 mM PEP; 250 ,M NADH; 50 units of LDH/mL; 20 units of PK/mL; 5 mM DTT; 20 mM poly(E4Y1); 3 mM ATP; and 60 mM MgCl2 and 2 mM MnCl2 in 200 mM Hepes, pH 7.5. Assays were initiated with 5 to 40 nM of enzyme. Ki values were determined by measuring enzyme activity in the presence of varying concentrations of test compounds. The data were analyzed using Enzyme Kinetic and Kaleidagraph software.

CDK4/Cyclin D3 complex = molecular target: T3, CDK4/Cyclin D3 complex (Homo sapiens, UniProt P11802); test: CDK4/Cyclin D assay (32P incorporation into Rb fragment); assay type: biochemical; conditions: apparent Ki; 50 nM CDK4/Cyclin D3 complex, 25 μM ATP
T3 construct: made in house; host or cells: insect cells co-infected with baculovirus expression vectors
T3 sequence (P11802 whole entry, the tested form may be a part): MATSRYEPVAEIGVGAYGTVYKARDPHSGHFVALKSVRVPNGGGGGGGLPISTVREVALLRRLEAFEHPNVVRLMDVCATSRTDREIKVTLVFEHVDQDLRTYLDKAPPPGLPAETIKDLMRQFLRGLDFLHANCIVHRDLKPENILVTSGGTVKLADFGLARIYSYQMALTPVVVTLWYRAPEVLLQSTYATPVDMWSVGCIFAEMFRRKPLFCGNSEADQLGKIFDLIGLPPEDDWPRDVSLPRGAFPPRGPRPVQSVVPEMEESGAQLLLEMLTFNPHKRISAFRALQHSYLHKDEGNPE
T3 sequence (P30281 whole entry partner, the tested form may be a part): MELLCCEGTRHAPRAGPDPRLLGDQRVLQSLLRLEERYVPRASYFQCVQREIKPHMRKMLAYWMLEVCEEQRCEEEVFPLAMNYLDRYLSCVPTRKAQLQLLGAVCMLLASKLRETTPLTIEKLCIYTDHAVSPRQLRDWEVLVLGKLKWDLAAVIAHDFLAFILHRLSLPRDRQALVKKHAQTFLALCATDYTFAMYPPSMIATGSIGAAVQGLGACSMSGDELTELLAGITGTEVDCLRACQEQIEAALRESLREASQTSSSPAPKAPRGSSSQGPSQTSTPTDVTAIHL
Procedure: CDK4/Cyclin D Construct for Assay: A complex of human CDK4 and cyclin D3, or a complex of cyclin D1 and a fusion protein of human CDK4 and glutathione-S-transferase (GST-CDK4), was purified using traditional biochemical chromatographic techniques from insect cells that had been co-infected with the corresponding baculovirus expression vectors.
(§2) CDK2/Cyclin A and CDK4/Cyclin D Assays
Cyclin-dependent kinase activity was measured by quantifying the enzyme-catalyzed, time-dependent incorporation of radioactive phosphate from [^32P]ATP into a recombinant fragment of the retinoblastoma protein. Unless noted otherwise, assays were performed in 96-well plates in a total volume of 50 μL, in the presence of 10 mM HEPES (N-[2-hydroxyethyl]piperazine-N′-[2-ethanesulfonic acid]) (pH 7.4), 10 mM MgCl2, 25 μM adenosine triphosphate (ATP), 1 mg/mL ovalbumin, 5 μg/mL leupeptin, 1 mM dithiothreitol, 10 mM β-glycerophosphate, 0.1 mM sodium vanadate, 1 mM sodium fluoride, 2.5 mM ethylene glycol-bis(β-aminoethyl ether)-N,N,N′N′-tetraacetic acid (EGTA), 2% (v/v) dimethylsulfoxide, and 0.03-0.2 μCi [^32P]ATP. The substrate (0.3-0.5 μg) was purified recombinant retinoblastoma protein fragment (Rb) (residues 386-928 of the native retinoblastoma protein; 62.3 kDa, containing the majority of the phosphorylation sites found in the native 1 06kDa protein, as well as a tag of six histidine residues for ease of purification). Reactions were initiated with CDK2 (150 nM CDK2/Cyclin A complex) or CDK4 (50 nM CDK4/Cyclin D3 complex), incubated at 30° C., and terminated after 20 minutes by the addition of ethylenediaminetetraacetic acid (EDTA) to 250 mM. The phosphorylated substrate was then captured on a nitrocellulose membrane using a 96-well filtration manifold, and unincorporated radioactivity was removed by repeated washing with 0.85% phosphoric acid. Radioactivity was quantified by exposing the dried nitrocellulose membranes to a phosphorimager. Apparent Ki values were measured by assaying enzyme activity in the presence of different compound concentrations and subtracting the background radioactivity measured in the absence of enzyme. The kinetic parameters (kcat, Km for ATP) were measured for each enzyme under the usual assay conditions by determining the dependence of initial rates on ATP concentration. The data were fit to an equation for competitive inhibition using Kaleidagraph (Synergy Software), or were fit to an equation for competitive tight-binding inhibition using the software KineTic (BioKin, Ltd.). The specific activity of CDK4 was the same whether complexed to full-length cyclin D3 or the truncated Cyclin D3 construct; both complexes also yielded very similar Ki values for selected inhibitors.

CDS1/CHK-2 (CDS1 CE4) = molecular target: T4, CDS1/CHK-2 (CDS1 CE4) (Homo sapiens, UniProt O96017); test: CDS1 assay (conditions identical to the CHK-1 assay); assay type: biochemical; conditions: 10 nM CDS1
T4 construct: CDS1 CE4 contains residues 209-502 including the kinase domain; 6xHis leader with thrombin site; first M absent from the expressed protein) (N); made in house; host or cells: E. coli
T4 sequence (O96017 209-502): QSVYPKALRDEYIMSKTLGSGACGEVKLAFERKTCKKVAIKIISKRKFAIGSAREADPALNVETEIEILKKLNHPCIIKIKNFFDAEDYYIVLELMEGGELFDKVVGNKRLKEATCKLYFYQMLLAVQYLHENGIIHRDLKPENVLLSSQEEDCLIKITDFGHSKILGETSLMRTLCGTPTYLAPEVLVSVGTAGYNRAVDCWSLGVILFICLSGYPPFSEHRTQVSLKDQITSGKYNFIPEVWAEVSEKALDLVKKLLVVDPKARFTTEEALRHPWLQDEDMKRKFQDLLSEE
Source text: CDS1 Construct for Assay: CDS1 CE4 contains residues 209-502 including the kinase domain of human CDS1/CHK-2 (GenBank accession number AFO86904, Matsuoka et al., Science, 282, 1893-97 (1998)). It contains the amino acid sequence: […] at the N-terminus of residue 209. (The first M is not present in the expressed protein due to post-translational processing of the N-terminus.) The protein was expressed in E. coli and purified by conventional chromatographic techniques.
as §1
The CDS 1 assay was prepared under identical conditions to that of the CHK-1 assay, except with the use of 10 nM of CDS1.

HCT 116 cells = test: Inhibition of cell growth, MTT assay, HCT 116; assay type: cell-based; conditions: Homo sapiens, HCT-116, 144 h, four to six days incubation
Procedure: (§3) Inhibition of Cell Growth: Assessment of Anti-proliferation with U2-OS, SAOS2, HCT116 Cancer Cell Lines
(§4) Inhibition of cell growth was measured using the tetrazolium salt assay, which is based on the ability of viable cells to reduce 3-(4,5-dimethylthiazol-2-yl)-2,5-[2H]-diphenyltetrazolium bromide (MTT) to formazan (Mossman, J. Immunological Methods, 65, 55-58 (1983)). The water-insoluble purple formazan product was then detected spectrophotometrically. The HCT 116, U2-OS, and SAOS 2 cell lines were each grown in 96-well plates, respectively. Cells were plated in the appropriate medium at a volume of 135 μL/well in McCoy's 5A Medium. Plates were incubated for 4 h before addition of inhibitor compounds.
(§5) Different concentrations of inhibitor compounds were added in 0.5% (v/v) dimethylsulfoxide (μL/well), and cells were incubated at 37° C. (5% CO2) for four to six days (depending on cell type). At the end of the incubation, MTT was added to a final concentration of 0.2 mg/mL, and cells were incubated for 4 h more at 37° C. After centrifugation of the plates and removal of medium, the absorbance of the formazan (solubilized in dimethylsulfoxide) was measured at 540 nm. The concentration of inhibitor compound causing 50% inhibition of growth was determined from the linear portion of a semi-log plot of inhibitor concentration versus percentage inhibition. […]

U2-OS cells = test: Inhibition of cell growth, MTT assay, U2-OS; assay type: cell-based; conditions: Homo sapiens, U2OS, 144 h, four to six days incubation
Procedure: as §3, §4, §5

CDK2/Cyclin A complex = CDK2/Cyclin A complex (Homo sapiens, UniProt P24941); test: CDK2/Cyclin A assay (32P incorporation into Rb fragment); assay type: biochemical; conditions: apparent Ki; 150 nM CDK2/Cyclin A complex, 25 μM ATP
Source text: CDK2/Cyclin A Construct for Assay: CDK2 was purified using published methodology (Rosenblatt et al., J. Mol. Biol., 230, 1317-1319 (1993)) from insect cells that had been infected with a baculovirus expression vector. Cyclin A was purified from E. coli cells expressing full-length recombinant cyclin A, and a truncated cyclin A construct was generated by limited proteolysis and purified as described previously (Jeffrey et al., Nature, 376, 313-320 (1995)).
as §2
Cyclin-dependent kinase activity was measured by quantifying the enzyme-catalyzed, time-dependent incorporation of radioactive phosphate from [^32P]ATP into a recombinant fragment of the retinoblastoma protein. […] The phosphorylated substrate was then captured on a nitrocellulose membrane using a 96-well filtration manifold, and unincorporated radioactivity was removed by repeated washing with 0.85% phosphoric acid. Radioactivity was quantified by exposing the dried nitrocellulose membranes to a phosphorimager. Apparent Ki values were measured by assaying enzyme activity in the presence of different compound concentrations and subtracting the background radioactivity measured in the absence of enzyme. The kinetic parameters (kcat, Km for ATP) were measured for each enzyme under the usual assay conditions by determining the dependence of initial rates on ATP concentration. […]

SAOS 2 cells = test: Inhibition of cell growth, MTT assay, SAOS 2; assay type: cell-based; conditions: Homo sapiens, SAOS-2, 144 h, four to six days incubation, read-out: SAOS2 IC50
Procedure: as §3, §4, §5

SMILES | melting point | Ki (CHK-1 KH289) | Ki [1] | Ki (CDK4/Cyclin D3 complex) | inhibition at 25 µM (CHK-1 KH289; at 25 μM, read-out: CHK-1 KH289 percent inhibition) | Ki (CDS1/CHK-2 (CDS1 CE4)) | IC50 (HCT 116 cells) | IC50 (U2-OS cells) | Ki (CDK2/Cyclin A complex) | IC50 (SAOS 2 cells) | inhibition at 10 µM (CHK-1 KH289; at 10 μM, read-out: CHK-1 KH289 percent inhibition)
Nc1nc2cc3c(cc2[nH]1)-c1ccccc1C3=NO (mixture of isomers) [Example B, 2-Amino-9(E/Z)-hydroxyimino-3H-fluoreno[2,3-d]imidazole] | 240 to 242 °C | 5800 nM | 1900 nM | 790 nM | – | – | – | – | – | – | –
Nc1cc2c(cc1[N+](=O)[O-])-c1cc([N+](=O)[O-])c(N)cc1C2=NO [Comparison Ex. 2(c), reference compound] | – | – | – | 3620 nM | 33% | 37000 nM | – | – | – | – | –
ON=C1c2cc(I)ccc2-c2cc3[nH]nnc3cc21 (mixture of isomers) [Example D, 9(E/Z)-Hydroxyimino-7-iodo-3H-fluoreno[2,3-d]-1,2,3-triazole] | – | 166 nM | – | 1200 nM | – | 21 nM | – | – | – | – | –
Nc1cc2c(cc1N)-c1ccccc1C2=NO [Comparison Ex. 2(b), reference compound] | – | 8100 nM | 923 nM | 3210 nM | – | 604 nM | – | – | – | – | –
ON=C1c2ccccc2-c2cc3[nH]cnc3cc21 (mixture of isomers) [Example A, 9(E/Z)-Hydroxyimino-3H-fluoreno[2,3-d]imidazole] | – | 3600 nM | 1330 nM | 2360 nM | – | – | – | – | – | – | –
ON=C1c2ccccc2-c2cc3[nH]nnc3cc21 (mixture of isomers) [Example C, 9(E/Z)-Hydroxyimino-3H-fluoreno[2,3-d]-1,2,3-triazole] | – | 571 nM | 1470 nM | 213 nM | – | – | 10400 nM | 18000 nM | 680 nM | 11000 nM | –
O/N=C1/c2ccccc2-c2nc3nonc3nc21 [Comparison Ex. 1, reference compound] | – | 26600 nM | 15900 nM | 2100 nM | – | 15000 nM | – | – | – | – | –
Nc1cc2c(cc1[N+](=O)[O-])-c1ccccc1C2=NO [Comparison Ex. 2(a), reference compound] | – | – | 15500 nM | 1790 nM | – | – | – | – | – | – | 14%
